Key:
[1] = system: ubiquinone-deficient enzyme preparation from beef heart mitochondria (succinate oxidase); test: Electron transport activity (succinate oxidase activity of ubiquinone-deficient enzyme preparation); assay type: biochemical; conditions: level of addition 5 n mole; control 7.1 ± 2.8
Experimental: Thus, the compound of this invention was added to a ubiquinone-deficient enzyme preparation made from beef heart mitochondria and the electron transport activity was investigated by assaying the succinate oxidase activity.
*The ubiquinonedeficient enzyme preparation was prepared from beef heart
mitochondria in accordance with the method of Lester and Fleischer
(Biochem. Biophys. Acta, 47, 358, 1961). The electron transport activity
was investigated by assaying the succinate oxidase activity.
**The composition of the reaction system (2 ml) was as follows. 0.2 M
sucrose, 10 mM TrisHCl (pH 7.4), 20 mM KCl, 3 mM MgCl2, […]
2Na, enzyme protein 1.99 mg, 50 μM potassium succinate, cytochrome C
0.2 mg. 1% Nikkol OP10 (produced by Nikko Chemicals Co. Ltd.) 5 μl
(control group) or 5 μl of a 1 mM solution of the test compound in 1%
Nikkol OP10. The oxygen consumption of this solution was measured with an
oxygen electrode device (Gilson Medical Electronics' Inc.).

[2] = system: rats with spontaneous hypertension (Ta:SHR); test: Blood pressure of Ta:SHR, oral gavage; assay type: in vivo, rat; conditions: 10 mg/kg/day oral gavage, mean ± standard error
Experimental: (§1) Thus, 21-week rats with spontaneous hypertension (Ta:SHR) were organized into groups of 8 to 10 individuals each, and one of the present compounds, i.e. 6-(6-hydroxy-3-methyl-3-hexenyl)-2,3-dimethoxy-5-methyl-1,4-benzoquinone (formula (I) wherein R:H3 CO, n:O, R2 :H, R1 :(CH2)3 OH, α β:double bond), and, as controls, ubiquinone homologs (ubiquinone-7 and ubiquinone-10) were each administered by oral gavage in doses of 10 mg/kg/day for 2 weeks (except on Sunday) or administered as incorporated in feed at the rate of 6 to 16 mg/kg/day for 4 weeks. Blood pressures were measured every week, and as for the oral gavage administration group, the blood was withdrawn from the abdominal aorta at the end of the administration period while each animal was kept under anesthesia with pentobarbital sodium (30 mg/kg, intraperitoneal). Then, the kidneys, liver, heart and adrenals were enucleated and weighed. At two weeks in the case of the oral gavage administration group (Table 3) or during week-1 through week-4 in the case of the feed incorporation group (Table 4), antihypertensive effects were observed. […] Since it is generally acknowledged that, in the case of ubiquinone homologs, such hypotensive effects are attributable to a depression of the ubiquinone (Q) deficiency in mitochondria, the degree of Q deficiency of heart mitochondria was investigated in 6 cases showing blood pressures over 230 mmHg in the control group and 6 cases showing blood pressures under 212 mmHg in the group dosed with the present compound.

[3] = system: rats with spontaneous hypertension (Ta:SHR); test: Blood pressure of Ta:SHR, incorporated in feed; assay type: in vivo, rat; conditions: 6-16 mg/kg/day in feed, mean ± standard error
Experimental: as §1

[4] = system: beef heart muscle phosphodiesterase; test: Phosphodiesterase inhibitory activity; assay type: biochemical; conditions: 1 mM
Source text: Since lysosomal membrane-stabilizing activity is developed through adenosine-[…]-cyclic monophosphate (c-AMP) of tissue cells, the action of compound (I) on c-AMP phosphodiesterase, the c-AMP decomposing enzyme, was investigated. […] Therefore, it was confirmed, if only from this fact, that the compound according to this invention has a membrane-stabilizing activity.
(2) The rate of decomposition of adenosine-[…]-cyclic phosphate by beef heart muscle phosphodiesterase was compared with the rate found in the absence of the test compound.

[5] = system: Rat liver lysosome; test: Lysosomal membrane stabilizing activity (release of β-glucuronidase and acid phosphatase); assay type: biochemical; conditions: 37° C., 90 minutes
Experimental: (1) Rat liver lysosome was incubated at 37° C. for 90 minutes and the activities of β-glucuronidase and acid phosphatase released from the lysosome due to instabilization of the membrane during that time were assayed and compared with the results obtained in the absence of the test compound. The test compound was added as dissolved in dimethylformamide.

[6] = system: isolated guinea pig trachea; test: Tracheal muscle relaxant activity; conditions: Cavia porcellus, relaxant effect of noradrenaline taken as 100, read-out: Tracheal muscle relaxant action; for Emax at 30 µg/mL: 3 × 10^-5 g/ml; for Emax at 100 µg/mL: 10^-4 g/ml
Experimental: Thus, the isolated guinea pig trachea was cut into a strip in accordance with the method of Kiyomoto et al. [Yamaura Y. ed. "Zensoku (Asthma)", Kodansha, Tokyo, p. 152, 1974 (Japanese language)], set up in a Magnus device and kept at constant contraction with potassium chloride solution five times the concentration of Tyrode solution. Under the above conditions, a solution of the drug in DMF was added and the muscle relaxant effect was recorded on a kymograph.
^(1) With the relaxant effect of noradrenaline being taken as 100.

`COC1=C(OC)C(=O)C(C/C=C(\C)CC/C=C(\C)CC/C=C(\C)CO)=C(C)C1=O` was tested, and the “Succinate oxidase activity [oxygen consumption]” value (“Succinate oxidase activity” for short) [1] was 42.4 ± 6.3 (n atoms oxygen) min. per mg p.

In the case of `COC1=C(OC)C(=O)C(C/C=C(\C)CC/C=C(\C)CO)=C(C)C1=O`, the “Succinate oxidase activity” value [1] is reported as 35.5 ± 3.5 (n atoms oxygen) min. per mg p.

For `COC1=C(OC)C(=O)C(CC=C(C)CCCC(C)(C)O)=C(C)C1=O`, the “Succinate oxidase activity” value [1] was 21.4 (n atoms oxygen) min. per mg p.

For `COC1=C(OC)C(=O)C(C/C=C(\C)CC/C=C(\C)CC/C=C(\C)CC/C=C(\C)CC/C=C(\C)CC/C=C(\C)CCC=C(C)C)=C(C)C1=O` [Ubiquinone-7, ubiquinone-7, reference compound], the Blood pressure ([2]; week 0) was 199 ± 9 mmHg, the Blood pressure ([2]; week 1) was 204 ± 9 mmHg and the Blood pressure ([2]; week 2) was 206 ± 11 mmHg.

`COC1=C(OC)C(=O)C(C/C=C(\C)CC/C=C(\C)CC/C=C(\C)CC/C=C(\C)CC/C=C(\C)CC/C=C(\C)CC/C=C(\C)CC/C=C(\C)CC/C=C(\C)CCC=C(C)C)=C(C)C1=O` [Ubiquinone-10, ubiquinone-10] was tested, and the Blood pressure ([3]; week 0) was 206 ± 16 mmHg, the Blood pressure ([3]; week 1) was 191 ± 14 mmHg and the Blood pressure ([3]; week 2) was 187 ± 10 mmHg. For the same molecule, the Blood pressure ([3]; week 3) was 199 ± 17 mmHg and the Blood pressure ([3]; week 4) was 205 ± 13 mmHg.

In the case of `COC1=C(OC)C(=O)C(CC(O)C(C)C(=O)O)=C(C)C1=O` (centres unmarked) [drawing 11 R#1], the “Action on phosphodiesterase % Inhibition” value [4] is reported as 60%, the “% Inhibition on release of acid phosphatase” value ([5]; 2 × 10^-4 M) is reported as 49% and the “% Inhibition on release of β-Glucuronidase” value ([5]; 2 × 10^-4 M) is reported as 18%.

With `CC1=C(C)C(=O)C(CC(O)C(C)C(=O)O)=C(C)C1=O` (centres unmarked) [drawing 11 R#2] the “Action on phosphodiesterase % Inhibition” value [4] was 20%, the “% Inhibition on release of acid phosphatase” value ([5]; 2 × 10^-4 M) was 48% and the “% Inhibition on release of β-Glucuronidase” value ([5]; 2 × 10^-4 M) was 29%.

`CC1=C(CC(O)C(C)C(=O)O)C(=O)c2ccccc2C1=O` (centres unmarked) [drawing 11 R#3] was tested, and the “Action on phosphodiesterase % Inhibition” value [4] was 40%, the “% Inhibition on release of acid phosphatase” value ([5]; 2 × 10^-4 M) was 35% and the “% Inhibition on release of β-Glucuronidase” value ([5]; 2 × 10^-4 M) was 15%.

For `COC1=C(OC)C(=O)C(C/C=C(\C)C(=O)O)=C(C)C1=O` [drawing 13 R#1], the “Action on phosphodiesterase % Inhibition” value [4] was 47%, the “% Inhibition on release of acid phosphatase” value ([5]; 2 × 10^-4 M) was 44% and the “% Inhibition on release of β-Glucuronidase” value ([5]; 2 × 10^-4 M) was 36%.

For `CC1=C(C)C(=O)C(C/C=C(\C)C(=O)O)=C(C)C1=O` [drawing 13 R#2], the “Action on phosphodiesterase % Inhibition” value [4] was 42%, the “% Inhibition on release of acid phosphatase” value ([5]; 2 × 10^-4 M) was 40% and the “% Inhibition on release of β-Glucuronidase” value ([5]; 2 × 10^-4 M) was 36%.

`CC1=C(C/C=C(\C)C(=O)O)C(=O)c2ccccc2C1=O` [drawing 13 R#3] was tested, and the “Action on phosphodiesterase % Inhibition” value [4] was 86%.

In the case of `CC1=C(C)C(=O)C(C/C=C(\C)CO)=C(C)C1=O` [drawing 15 R#1], the “Action on phosphodiesterase % Inhibition” value [4] is reported as 41%, the “% Inhibition on release of acid phosphatase” value ([5]; 2 × 10^-4 M) is reported as 32% and the “% Inhibition on release of β-Glucuronidase” value ([5]; 2 × 10^-4 M) is reported as 37%.

For `CC1=C(C/C=C(\C)CO)C(=O)c2ccccc2C1=O` [drawing 15 R#2], the “Action on phosphodiesterase % Inhibition” value [4] was 55%, the “% Inhibition on release of acid phosphatase” value ([5]; 2 × 10^-4 M) was 39% and the “% Inhibition on release of β-Glucuronidase” value ([5]; 2 × 10^-4 M) was 37%.

In the case of `COC1=C(OC)C(=O)C(C/C=C(\C)CCCO)=C(C)C1=O` [drawing 17 R#1], the “Action on phosphodiesterase % Inhibition” value [4] is reported as 84%, the “% Inhibition on release of acid phosphatase” value ([5]; 2 × 10^-4 M) is reported as 37% and the “% Inhibition on release of β-Glucuronidase” value ([5]; 2 × 10^-4 M) is reported as 28%.

With `CC1=C(C)C(=O)C(C/C=C(\C)CCCO)=C(C)C1=O` [drawing 17 R#2] the “Action on phosphodiesterase % Inhibition” value [4] was 53%, the “% Inhibition on release of acid phosphatase” value ([5]; 2 × 10^-5 M) was 34% and the “% Inhibition on release of β-Glucuronidase” value ([5]; 2 × 10^-5 M) was 23%.

With `CC1=C(C/C=C(\C)CCCO)C(=O)c2ccccc2C1=O` [drawing 17 R#3] the “% Inhibition on release of acid phosphatase” value ([5]; 2 × 10^-5 M) was 36% and the “% Inhibition on release of β-Glucuronidase” value ([5]; 2 × 10^-5 M) was 25%.

`COC1=C(OC)C(=O)C(CCC(C)CO)=C(C)C1=O` (centres unmarked) [drawing 19 R: H3 CO] was tested, and the “Action on phosphodiesterase % Inhibition” value [4] was 38%, the “% Inhibition on release of acid phosphatase” value ([5]; 2 × 10^-4 M) was 43% and the “% Inhibition on release of β-Glucuronidase” value ([5]; 2 × 10^-4 M) was 38%.

With `CC1=C(C)C(=O)C(CCC(C)CO)=C(C)C1=O` (centres unmarked) [drawing 19 R: H3 C] the “Action on phosphodiesterase % Inhibition” value [4] was 44%, the “% Inhibition on release of acid phosphatase” value ([5]; 2 × 10^-4 M) was 21% and the “% Inhibition on release of β-Glucuronidase” value ([5]; 2 × 10^-4 M) was 29%.

For `CC(=CCC1=C(C)C(=O)C(C)=C(C)C1=O)CCC=C(C)CCC(C)(C)O` [drawing 20 R#1], the “Action on phosphodiesterase % Inhibition” value [4] was 18%, the “% Inhibition on release of acid phosphatase” value ([5]; 2 × 10^-4 M) was 16% and the “% Inhibition on release of β-Glucuronidase” value ([5]; 2 × 10^-4 M) was 20%.

With `CC(=CCC1=C(C)C(=O)c2ccccc2C1=O)CCC=C(C)CCC(C)(C)O` [drawing 20 R#2] the “Action on phosphodiesterase % Inhibition” value [4] was 29%, the “% Inhibition on release of acid phosphatase” value ([5]; 2 × 10^-5 M) was 9% and the “% Inhibition on release of β-Glucuronidase” value ([5]; 2 × 10^-5 M) was 18%.

With `COC1=C(OC)C(=O)C(C/C=C(\C)CCCO)=C(C)C1=O` [drawing 24] the “Succinate oxidase activity” value [1] was 18.2 (n atoms oxygen) min. per mg p.

`COC1=C(OC)C(=O)C(CCC(C)CO)=C(C)C1=O` (centres unmarked) [drawing 25] was tested, and the “Succinate oxidase activity” value [1] was 12.5 (n atoms oxygen) min. per mg p.

`COC1=C(OC)C(=O)C(C/C=C(\C)CCCO)=C(C)C1=O` [drawing 28 R: H3 CO] gave an Emax at 30 µg/mL [6] of 85.5% and an Emax at 100 µg/mL [6] of 100%.

In the case of `CC1=C(C)C(=O)C(C/C=C(\C)CCCO)=C(C)C1=O` [drawing 28 R: H3 C], the Emax at 30 µg/mL [6] is reported as 67% and the Emax at 100 µg/mL [6] is reported as 100%.

`Cn1c(=O)c2[nH]cnc2n(C)c1=O` [theophylline, reference compound] was tested, and the “Action on phosphodiesterase % Inhibition” value [4] was 32%, the Emax at 30 µg/mL [6] was 60.4% and the Emax at 100 µg/mL [6] was 93%.

Reference: US4818441A, “Quinine derivatines” (Takeda Chemical Industries, Ltd., priority 1979, dated 1989)
